Patent US7297460B2, “Radiation curable ink compositions suitable for ink-jet printing” (Agfa-Gevaert, priority 2003, dated 2007)

Test: Solubility of invention compounds in reactive diluents and oligomers
Type: physicochemical

C=C(C)C(=O)OCCC[Si]12O[Si]3(CCCOC(=O)C(=C)C)O[Si]4(CCCOC(=O)C(=C)C)O[Si](CCCOC(=O)C(=C)C)(O1)O[Si]1(CCCOC(=O)C(=C)C)O[Si](CCCOC(=O)C(=C)C)(O2)O[Si](CCCOC(=O)C(=C)C)(O3)O[Si](CCCOC(=O)C(=C)C)(O4)O1 [I.10]
50 wt %: Solubility in CN501 (in CRAYNOR CN501, amino-modified polether acrylate, * footnote: complete solubility after addition of a very small amount of CH2Cl2) | Solubility in TMPTA (in TMPTA = trihydroxymethylpropane triacrylate, * / # footnotes: dissolved after addition of a very small amount of CH2Cl2) | Solubility in TPGDA (in TPGDA = tri(propyleneglycol) diacrylate, * / # footnotes: dissolved after addition of a very small amount of CH2Cl2)
